Reference: patent publication US12268727B2, “Bioactive polypeptides for improvements in plant protection, growth and productivity” (priority 2017, dated 2025)
Read-outs that look alike come from different tables or passages of the source.

How the values were obtained:
citrus trees = details: for Flush length (% of control) / Average Flush Length (inches): injected April 2017, measured May 2018; for more new branch growth than untreated control: orange
Cercospora brassicicola = experiment: White leaf spot on kale, disease score and plant weight; assay type: in vivo
Experimental: The infected kale plants had received no previous foliar treatments for fungal disease prevention. […] A single person scored all the plants within the trial area, and then evenly distributed the plants by disease score between the treatments in Table 64, with 6 replicated blocks of 6 plants per treatment (total=36 plants per treatment). […] Three weeks after foliar treatments, the plants were scored used the same disease severity rubric. The change in disease score was calculated for each plant, and the average change in disease score was determined per treatment. Plants were harvested four days after assessing disease severity, and yield was measured as plant weight (grams). Outlying values with weights that were either 50% below or 50% above the median weight for the trial were excluded from the dataset.

[1] = system: reactive oxygen species (ROS) production in Kiwi 'Hayward' leaf petioles; experiment: ROS activity assay in kiwi leaf petioles; assay type: cell-based, Actinidiae deliciosa; details: 100 nM peptide; Kiwi 'Hayward' leaf petiole slices; 40 minutes time course
Experimental: To test the sensitivity of kiwi leaves to 22-amino acid fragments of flagellin, 1 mm slices were cut through Actinidiae deliciosa Kiwi ‘Hayward’ leaf petioles and floated in 150 μL of water in a 96-well plate, with one slice per well. […] In two independent experiments, a total of 6 kiwi leaf petiole samples were treated with each Flg22 polypeptide in Table 94. The average total RLU and standard error of the means (SEM) was calculated for each treatment. A two-tailed T-test was used to determine significance at the 90% confidence level (P<0.1) between treatments. Relative ROS production was determined for each polypeptide in comparison to total RLUs for the 100 nM Bt.4Q7Flg22 control.

tomatoes = experiment: Foliar application to tomato, yield; assay type: in vivo; details: for change in fruit weight per plant vs no spray control: Roma, Bt.4Q7Flg22 16.7 μM at 4.0 Fl. oz/Ac, Gm.RHPP 100 μM at 3.2 Fl. oz/Ac
Experimental: Small scale plots were designed to simulate commercial growing conditions for tomatoes. Two hybrids of tomatoes, JetSetter (Trial 1) and Better Big Boy (Trial 2) were started as transplants in the greenhouse 42 to 56 days prior to planting in the raised field beds. Tomatoes were transplanted once soil temperatures three inches (7.6 cm) beneath the soil surface reach 60° F. (15.5° C.). Tomatoes were grown on raised beds covered with black plastic mulch. Plants were grown using drip irrigation and fertilizer applied following grower guidelines throughout the growing season to ensure optimum plant growth and yields. Small raised bed plots were designed to simulate the planting densities used by commercial growers that generally plant 2,600 to 5,800 plants per acre in single rows with 18 to 30 inches (46 to 76 cm) between plants in the row on 5- to 6.5-ft (1.5 to 2 m) centers.
Foliar treatments of Bt.4Q7 Flg22 and Ec. […] Replicated trials were conducted at the University of Missouri (Columbia, Mo.) in July. Control plants were treated with equal volumes (use rates) of water. Effects of the foliar treatments on increasing yield in tomatoes were determined and reported as normalized to the water control treatment.
In another experiment, tomato plants (hybrid: Better Boy), cultivated as described in the previous example, were treated with a formulation of Bt.4Q7 Flg22 at the first bloom stage. The formulation used consisted of the retro inverso D RI Bt.4Q7 Flg22 applied with 0.01% (v/v) non-ionic surfactant. […] At harvest, the yield was measured as the number of fruits per plant, the weight (grams) per fruit and the total yield (lbs/Ac). Table 29 reports the yield as a percent comparison or change to the non-treated control (water only) plants.
Foliar application treatments of Gm.RHPP (SEQ ID NO: 600) was applied as an exogenous spray at the pre-bloom stage and used to increase yield in tomatoes. Two tomato hybrids (JetSetter and Better Big Boy) were planted in small scale plots as described in Example 12. […] Replicated trials were conducted at the US Midwest (Missouri) in July. The foliar treatment of Gm.RHPP on tomato plants was compared to the control (water applied at same use rate). Effects of the foliar treatments on increasing yield in tomatoes were determined and reported as normalized to the water control treatment and reported as the average percentage change in yield over the average control yield in Table 41.
Small scale plots were designed to simulate commercial growing conditions for tomatoes. Tomato plants, variety Roma were started from transplants that were grown in a greenhouse for 45 days prior to planting into 2 raised field row beds with 2 feet (0.6 meters) between each transplant with an average of 30 plants per row bed. […] Tomatoes were grown on raised beds covered with black plastic mulch. Plants were grown using drip irrigation and fertilizer (80 lbs. or 36.3 kg) nitrogen; 100 lbs. (45.4 kg) phosphate, and 100 lbs. (45.4 kg) potash or potassium) applied following grower guidelines throughout the growing season to provide for optimum plant growth and yields. Small raised bed plots were designed to simulate the planting densities used by commercial growers that generally plant 2,600 to 5,800 plants per acre in single rows with 45.7 to 76.2 cm between plants in the row on 1.5- to 2-meter centers. [Orzolek et al., “Agricultural Alternatives: Tomato Production.” University Park: Penn State Extension, 2016].
Foliar treatments using Bt.4Q7Flg22 and Gm.RHPP were applied on the tomato plants directly at early bloom (first flower) stage.

[2] = system: reactive oxygen species (ROS) production in corn tissue; experiment: ROS activity assay in corn tissue (luminol/horseradish peroxidase, RLU); details: for Change (X) in RLU of Flg22 Polypeptide Compared to Negative Control / Average RLU of Flg22 Polypeptide Treatment: corn petiole; for Average RLU of Flg22 Polypeptide Treatment: background subtracted; for Relative ROS activity normalized to Bt.4Q7Flg22: normalized to Bt.4Q7Flg22 at 100 nM
[3] = 1 Fl. oz/Ac, first bloom, hybrid Better Boy, formulation with 0.01% non-ionic surfactant
[4] = 1 Fl. oz/Ac, foliar at early bloom
[5] = 20 Fl. oz/Ac, foliar at early bloom
[6] = foliar 1 Fl. oz/Ac at early bloom, vs water control

Bt.4Q7Flg22: Flg22 polypeptide (22 amino acids) from flagellin of Bacillus thuringiensis strain 4Q7 (DRLSSGKRINSASDDAAGLAIA; listed as Bacillus thuringiensis)
phytotoxicity after trunk injection (citrus trees; 1× or 10× rate): no phytotoxicity occurred | average new shoot length (citrus trees; Hamlin and Vernia orange, trunk injection, two months after treatment): 3.84 inches | shoot length vs untreated control (printed as % longer) (citrus trees; Hamlin and Vernia orange, two months after trunk injection or foliar spray): 25% | Flush length (% of control) (citrus trees; Red Grapefruit, 1X, 0.138 μM): 135% | Average Flush Length (inches) (citrus trees; Red Grapefruit, 1X, 0.138 μM, control 8.05): 10.83 inches | Flush length (% of control) (citrus trees; Red Grapefruit, 10X, 1.38 μM): 113% | Average Flush Length (inches) (citrus trees; Red Grapefruit, 10X, 1.38 μM, control 8.05): 9.13 inches | Flush length (% of control) (citrus trees; Valencia Orange, 1X, 0.138 μM): 184% | Average Flush Length (inches) (citrus trees; Valencia Orange, 1X, 0.138 μM, control 7.23): 13.33 inches | Flush length (% of control) (citrus trees; Valencia Orange, 10X, 1.38 μM): 170% | Average Flush Length (inches) (citrus trees; Valencia Orange, 10X, 1.38 μM, control 7.23): 12.29 inches | more new branch growth than untreated control (citrus trees; 1× injection): 85% | more new branch growth than untreated control (citrus trees; 1× injection April 2017, measured May 2018): 6.1 inches | Average Change in Disease Score (Cercospora brassicicola; improvement on the 1-5 scale, surfactant only control 0.6 point improvement): 1.1 point | average plant weight (Cercospora brassicicola; infected kale, harvested about 3.5 weeks after foliar treatment): 15.1 g | Yield (Average plant weight in grams) (Cercospora brassicicola; infected kale, Bt.4Q7Flg22 100 μM 12.0 Fl. oz/Ac, Liquid Copper Fungicide label rate 54.45 Fl oz/Ac): 15.1 grams | Yield Relative to control (%) (Cercospora brassicicola; infected kale, surfactant only control 100%, Bt.4Q7Flg22 12.0 Fl. oz/Ac, copper fungicide 54.45 Fl oz/Ac): (103%) | average improvement in disease scoring over control (1-5 rubric) (Cercospora brassicicola; three weeks after foliar treatment): 0.5 points | Average Total Relative Light Units (RLUs); SEM in parentheses [1]: 47,457 RLU | Percent Change in Number of Fruits per Plant Compared to Control (tomatoes; [3]): +12% | Percent Change in Weight/Fruit Compared to Control (tomatoes; [3]): +9% | Percent Change in Yield (lbs/Ac) Compared to Control (tomatoes; [3]): +21% | Average Trials 1 & 2 Percent Change Yield over Avg. Control (tomatoes; [4]): +25% | Trial 1: Percent Change in Yield over Avg. Control; Hybrid: Jetsetter (tomatoes; [4]): +49% | Trial 2: Percent Change in Yield over Avg. Control; Hybrid: Better Big Boy (tomatoes; [4]): +1% | Average Trials 1 & 2 Percent Change Yield over Avg. Control (tomatoes; [5]): +17% | Trial 1: Percent Change in Yield over Avg. Control; Hybrid: Jetsetter (tomatoes; [5]): +22% | Trial 2: Percent Change in Yield over Avg. Control; Hybrid: Better Big Boy (tomatoes; [5]): +12% | change in fruit weight per plant vs no spray control (tomatoes): 8.61% | increase in tomato yield over control, two hybrids averaged (tomatoes; early bloom, high rate 20 Fl. oz/Ac): 17% | increase in tomato yield over control, two hybrids averaged (tomatoes; early bloom, low rate 1 Fl. oz/Ac): 25% | Avg. Activity (%) Corn (5828 YX) 5 nM polypeptide ([2]; Table 33, RLU relative to native Bt.4Q7Flg22 = 100): 100% | Avg. Activity (%) Corn (5828 YX) 5 nM polypeptide ([2]; Table 35, single polypeptides and combinations, Bt.4Q7Flg22 = 100): 100% | Change (X) in RLU of Flg22 Polypeptide Compared to Negative Control ([2]; 1.0 nM): 0.8X | Average RLU of Flg22 Polypeptide Treatment ([2]; 1.0 nM): 6851 RLU | Change (X) in RLU of Flg22 Polypeptide Compared to Negative Control ([2]; 5 nM): 1.1X | Average RLU of Flg22 Polypeptide Treatment ([2]; 5 nM): 9389 RLU | Change (X) in RLU of Flg22 Polypeptide Compared to Negative Control ([2]; 25 nM): 1.4X | Average RLU of Flg22 Polypeptide Treatment ([2]; 25 nM): 12157 RLU | Average RLU ([2]; corn stalk tissue, 10 nM): 6032 RLU | relative ROS activity ([2]; corn stalk tissue, 10 nM): 0.2 × | Relative ROS activity normalized to Bt.4Q7Flg22 ([2]; corn stalk tissue, 10 nM): (0.2X) | Average RLU ([2]; corn stalk tissue, 100 nM): 33037 RLU | Relative ROS activity normalized to Bt.4Q7Flg22 ([2]; corn stalk tissue, 100 nM): (1X*)

GGIRAAPTGNER (Glycine max) [RHPP, Root Hair Promoting Peptide from Glycine max]
increase in tomato yield over control (tomatoes; 1 Fl. oz/Ac, Better Big Boy): 10% | increase in tomato yield over control (tomatoes; 1 Fl. oz/Ac, Jetsetter hybrid): 93% | average increase in tomato yield over control, two hybrids (tomatoes; 1 Fl. oz/Ac, early bloom): 52% | Percentage Change in Fruit Weight Compared to No-Spray Control (tomatoes; Roma tomato, foliar at early bloom, Bt.4Q7Flg22 16.7 μM 4.0 Fl. oz/Ac, Gm.RHPP 100 μM 3.2 Fl. oz/Ac): +1.99% | Average Fruit Weight (grams) per Plant (tomatoes; Roma tomato, foliar at early bloom, Bt.4Q7Flg22 16.7 μM 4.0 Fl. oz/Ac, Gm.RHPP 100 μM 3.2 Fl. oz/Ac, 2 harvests): 1397.1 grams | change in fruit weight per plant vs no spray control (tomatoes): ~2% | Average Trials 1 & 2 Percent Change Yield over Avg. Control (tomatoes; foliar 1 Fl. oz/Ac at early bloom, both tomato hybrids): +52% | Trial 1: Percent Change in Yield over Avg. Control; Hybrid: Jetsetter (tomatoes; [6]): +93% | Trial 2: Percent Change in Yield over Avg. Control; Hybrid: Better Big Boy (tomatoes; [6]): +10%
